Measured values: patent US20070225213A1, “Nucleic acid carriers for delivery of therapeutic agents” (priority 2006, published 2007)

Columns and labels:
[1] = test system: COS7; assay: Cell uptake by MTN fluorescence EX620/EM680 (Examples 10 and 13, EX051605); format: cell-based, green monkey; conditions: 10% w/w loading in DNA
Method: Materials: HSGDNA, MTN, ODNAS1116 (phosphorothioated, single stranded DNA, and Beta-cyclodextrin polymer (BCD-SBE, KKBIOMED Inc.) were previously prepared in water at 10 mg/ml, 1 mg/ml, 0.95 mg/ml, and 10 mg/ml respectively.
Procedure: For NAC-MTN, combined 37 ul HSGDNA (herring genomic DNA, Promega Inc.), 1426 ul HBSS( Hank's buffered saline, Sigma-Aldrich), with 37 ul of MTN, followed by 1500 ul 2× DMEM media to give 3 ml final and 24 uM (24 micro-molar) MTN and 10% w/w drug loading of MTN. For NAC-MTN (AR1505) combined 62 ul of HSDNA (deg. herring sperm DNA, Sigma) with 2377 ul HBSS, 61.7 ul MTN, 2500 ul 2× media to give 5 ml final and 24 uM MTN and 10% w/w drug loading of MTN to HSDNA. […]
Plate#1 Media was aspirated and cells treated with 100 ul of either NAC-MTN, CD-MTN, or MTN at 24 uM MTN final or 12.3 ug/ml MTN in all samples. Samples containing MTN were incubated 4 hours, removed, and fluorescence taken at EX620/EM680. […]
Samples were incubated 4 hours, removed, and MTN fluorescence taken at EX620/EM680. […] Average MTN fluorescence was averaged from 6 wells. For each cell type, MTN fluorescence was highest in MTN treated cells, followed by CD-MTN, and lowest in NAC-MTN. […]
PLATE#2: Dispensed 50 ul from source plate into plate #2 to give 150 ul final vol 4.1 ug/ml, 8 uMfinal per well, pre-read fluorescence w samples (bkgd) incubated 5 hr, removed, replaced w/ media, read fluor. […]

[2] = test system: MCF7; assay: Effect of plating time on uptake of NAC-MTN and MTN, fluorescence (Example 11); format: cell-based, human
Method: The effect of plating time on the differential rates of uptake between NAC-MTN and MTN were assayed in cells treated <1 hour and 24 hours after plating.
On day 1, MCF7, COS7, 3T3, and BHK21 cells were plated out in a standard tissue culture plate. After incubation of 20 minutes samples were added to cells in rows A, C, E, and G. Cells were incubated at 37C in a standard atmosphere of 5%CO2.
On day 2, samples were added to rows D, F, and H and the fluorescence was obtained EX620/EM680 S=80. Samples were removed from A,C,E and G, replaced with media and fluorescence read again. On day 2 observed significant drug toxicity in cells of rows A,C, E, G. Sample addition was postponed in row B since MCF7 were not yet confluent.
On day 3, added samples to cells in row B containing confluent MCF7's, removed samples from rows D, F, and H replaced with media and read fluorescence.
Fluorescence data from cells taken after removal of media was used to quantitate total MTN retained in the cells. Fluorescence data were converted to mg/ml MTN using a standard curve prepared with free MTN or NAC-MTN.
The percentage difference in fluorescence between cells treated with NAC-MTN or MTN alone was used to compare relative drug uptake.
The MTN fluorescence ratios were obtained by dividing MTN fluorescence of cells incubated for 24 hours by fluorescence of cells incubated 30 minutes. […] The uptake in BHK21 was roughly equivalent for NAC-MTN regardless of plate adherence, however it should be noted that BHK21 adhere very rapidly to the plate.
Fluorescence data were converted to micromolar drug concentrations (uM MTN) using a standard curve for either nucleic acid bound or unbound drug, and drug uptake ratios were obtained by dividing the t(24 hour)/t(30 min.). The ratios of absolute drug concentration per well show more dramatic differences in uptake as shown below.

[3] = In vivo MTN recovery in mouse urine after single i.v. dose (Example 17)
Method: NAC-MTN or MTN alone was administered intravenously to mice via the tail vein. […] After 2 hours, NAC-MTN or MTN was detected in urine, quantified by absorbance at 665 nm, and reported as % of total.
Procedure. […] White mice, n=2 were tail vein injected with 0.25 ml of either NAC-MTN or MTN alone. […] MTN was quantified in mouse urine by absorbance of 0.2 ml sample at 665 nm, and converted to mg/ml using an MTN standard curve.
To determine if NAC-MTN was excreted in urine as a complex, MTN fluorescence due to unbound NAC was assayed by an addition method. DNA was added to urine from both groups and subsequent change in fluorescence was measured.

[4] = Elapsed Time 2.5 hr, 0.281 mg MTN i.v.

Structure (SMILES): O=C1c2c(O)ccc(O)c2C(=O)c2c(NCCNCCO)ccc(NCCNCCO)c21 [MTN, mitoxantrone]
- % reduction in fluorescence relative to MTN alone (MTN = 0%) ([1]; Plate#1, 24 uM MTN, 4 hours): 0%
- % reduction in fluorescence relative to MTN alone (MTN = 0%) ([1]; Plate#2, 8 uM MTN): 0%
- MTN FLUOR Ratio of t(24)/t(<1) [2]: 0.75
- FLUOR (MTN fluorescence in cells) ([2]; cells treated 24 hour after plating): 18819
- FLUOR (MTN fluorescence in cells) ([2]; cells treated <1 hour after plating): 16651
- Ratio uM MTN of t(24)/t(<1) ([2]; from standard curve for bound or unbound drug): 1.2
- FLUOR. (mouse urine) [3, 4]: 4086
- MTN % recov. in urine (% of total dose) [3, 4]: 1.9%
- FLUOR. (mouse urine) ([3]; Elapsed Time 5 hr): 4405
- MTN % recov. in urine (% of total dose) ([3]; Elapsed Time 5 hr): 1.6%
- FLUOR. (mouse urine) ([3]; Elapsed Time 8 hr): 4455
- MTN % recov. in urine (% of total dose) ([3]; Elapsed Time 8 hr): 3.8%
